The test system of the assay is rat hepatic microsomal PTPases. As to conditions: PTPase activity, compound at 50 μM.
As for `O=C(O)COc1c(Br)cc(-c2c3ccccc3c(Br)c3c2c2ccccc2[s+]3[O-])cc1Br` (stereo not drawn) [Example 187], the “% Change from Control” value is recorded as -57.64%.

On to `Cc1cc(-c2c3ccccc3c(C)c3sc4ccccc4c23)cc(C)c1OCC(=O)O` [Example 86, {2,6-Dimethyl-4-[6-methyl-(benzo[b]naphtho[2,3-d]thiophen-11-yl)]-phenoxy}-acetic acid], for which the “% Change from Control” value is on record as -69.35%.

With `O=C(O)COc1c(Br)cc(-c2c3ccccc3c(Br)c3oc4ccccc4c23)c(O)c1Br` [Example 217], the “% Change from Control” value is on record as -80.42%. Regarding `O=C(O)COc1ccc(-c2c3ccc(OCC(=O)O)cc3cc3sc4ccccc4c23)cc1` [Example 76, [11-(4-Carboxymethoxy-phenyl)-benzo[b]naphtho[2.3-d]thiophen-8-yloxy]-acetic acid], the “% Change from Control” value is listed as -18.89%. Turning to `COc1ccc(C(=O)c2c(Cc3ccccc3)sc3ccccc23)cc1` [Example 7, (2-Benzyl-benzo[b]thiophen-3-yl)-(4-methoxy-phenyl)-methanone], the “% Change from Control” value turned out to be 1.03%.

With `CCOP(=O)(OCC)C(CCc1ccccc1)Oc1c(Br)cc(-c2c3ccccc3c(Br)c3sc4ccccc4c23)cc1Br` (stereo not drawn) [Example 161, {1-2,6-Dibromo-4-(6-bromo-benzo[b]naphtho[2,3-d]thiophen-11-yl)-phenoxyl-3-phenyl-propyl}-phosphonic acid, diethyl ester], the “% Change from Control” value was -8.03%. Under `O=C(O)COc1c(I)cc(-c2c3ccccc3cc3sc4ccccc4c23)cc1I` [Example 83, (4-Benzo[b]naphtho[2,3-d]thiophen-11-yl-2,6-diiodo-phenoxy)-acetic acid] stands -57.89%; under `Oc1c(Br)cc(-c2c3ccccc3c(Br)c3oc4ccccc4c23)c(O)c1Br` [Example 211, 2,6-Dibromo-4-(6-bromo-benzo[b]naphtho[2,3-d]furan-11-yl)-3-hydroxy-phenol], -36.82%. Under `O=C(O)COc1ccc(-c2c3ccccc3cc3sc4ccccc4c23)cc1` [Example 84, [4-Benzo[b]naphtho[2,3-d]thiophen-11-yl-phenoxy]-acetic acid] stands -73.91%; under `CS(=O)(=O)Oc1ccc(-c2c3ccccc3c(I)c3sc4ccccc4c23)cc1` [Example 47, Methanesulfonic acid 4-(6-Iodo-benzo[b]naphtho[2,3-d]thiophen-11-yl)-phenylester], -3.50%; under `O=C(NO)[C@@H](Cc1ccccc1)Oc1c(Br)cc(-c2c3ccccc3c(Br)c3sc4ccccc4c23)cc1Br` [Example 167], -16.99%.

On to `COc1c(Br)cc(-c2c3ccccc3c(Br)c3sc4ccccc4c23)cc1Br` [Example 22], for which the “% Change from Control” value is -16.83%.

Turning to `Oc1ccc(-c2c3ccc(O)cc3cc3sc4ccccc4c23)cc1` [Example 20, 11-(4-Hydroxy-phenyl)-benzo[b]naphtho[2,3-d]thiophen-8-ol], the “% Change from Control” value was -26.86%. With `O=P(O)(O)C(CCc1ccccc1)Oc1c(Br)cc(-c2c3ccccc3c(Br)c3sc4ccccc4c23)cc1Br` (stereo not drawn) [Example 164], the “% Change from Control” value is given as -70.32%. For the compound `O=C(O)COc1ccc(-c2c3ccccc3cc3sc4ccccc4c23)cc1I` [Example 85, (4-Benzo[b]naphtho[2,3-d]thiophen-11-yl-2-iodo-phenoxy)-acetic acid], the “% Change from Control” value is reported as -71.67%. The same measure for `O=C(O)COc1c(F)ccc(-c2c3ccccc3c(Br)c3sc4ccccc4c23)c1F` [Example 201, [3-(6-Bromo-benzo[b]naphtho[2,3-d]thiophen-11-yl)-2.6-difluoro-phenoxy]-acetic acid]: -75.75%.

Regarding `Oc1c(I)cc(-c2c3ccccc3cc3sc4ccccc4c23)cc1I` [Example 26, 4-(Benzo[b]naphtho[2,3-d]thiophen-11-yl)-2,6-diiodo-phenol], the “% Change from Control” value is recorded as -8.68%. Consider `N#Cc1c2ccccc2c(-c2cc(Br)c(OCC(=O)O)c(Br)c2)c2c1sc1ccccc12` [Example 88], for which the “% Change from Control” value is -67.03%. Under `Oc1c(Br)cc(-c2c3ccccc3c(C(F)(F)F)c3sc4ccccc4c23)cc1Br` [Example 61, 2,6-Dibromo-4-(6-trifluoromethyl-benzo[b]naphtho[2,3-d]thiophen-11-yl)-phenol] stands -54.82%; under `O=P(O)(O)COc1ccc(-c2c3ccccc3cc3sc4ccccc4c23)cc1` [Example 163, [4-(Benzo[b]naphtho[2,3-d]thiophen-11-yl)-phenoxymethyl]-phosphonic acid], -38.40%. In the case of `Oc1ccc(-c2c3ccccc3cc3sc4cc(O)ccc4c23)cc1` [Example 15, 11-(4-Hydroxy-phenyl)-benzo[b]naphtho[2,3-d]thiophen-3-ol], the “% Change from Control” value is -43.68%. Under `O=C(O)COc1cc(Br)c(-c2c3ccccc3c(Br)c3sc4ccccc4c23)cc1OCC(=O)O` [Example 95] stands -75.45%. For the compound `O=C(O)COc1cc(-c2c3ccccc3c(Br)c3sc4ccccc4c23)cc(Br)c1OCC(=O)O` [Example 94], the “% Change from Control” value is -95.80%. For `O=C1NC(=O)C(Oc2c(Br)cc(-c3c4ccccc4c(Br)c4sc5ccccc5c34)cc2Br)S1` (stereo not drawn) [Example 175, 5-[2,6-Dibromo-4-(6-bromo-benzo[b]naphtho[2,3-d]thiophen-11-yl)-phenoxy]-thiazolidinedione-2.4-dione], the “% Change from Control” value is on record as -69.20%. Regarding `O=C(O)COc1ccc(-c2c3ccccc3cc3oc4ccccc4c23)cc1` [Example 213, 4-(Benzo[b]naphtho[2,3-d]furan-11-yl-phenoxy)-acetic acid], the “% Change from Control” value is given as -54.40%. For `Oc1ccc(-c2c3ccccc3cc3sc4ccccc4c23)cc1` [Example 14, 4-Benzo[b]naphtho[2,3-d]thiophen-11-yl-phenol], the “% Change from Control” value is recorded as -34.19%. The same measure for `O=C(O)COc1ccc(-c2c3ccccc3c(Br)c3sc4ccccc4c23)cc1OCC(=O)O` [Example 93]: -58.35%; for `O=C(O)[C@@H](CCN1C(=O)c2ccccc2C1=O)Oc1c(Br)cc(-c2c3ccccc3c(Br)c3sc4ccccc4c23)cc1Br` [Example 147, (R)-2-[2,6-Dibromo-4-(6-bromo-benzo[b]naphtho[2,3-d]thiophen-11-yl)-phenoxy]-4-(1,3-dioxo-1,3-dihydro-isoindol-2-yl)-butyric acid]: -66.60%.

As to `N#Cc1cc(-c2c3ccccc3cc3sc4ccccc4c23)cc(C#N)c1O` [Example 32, 5-Benzo[b]naphtho[2,3-d]thiophen-11-yl-2-hydroxy-isophthalonitrile], the “% Change from Control” value is given as -58.12%. Under `O=C(O)COc1c2ccccc2c(-c2cc(Br)c(O[C@H](Cc3ccccc3)C(=O)O)c(Br)c2)c2c1sc1ccccc12` [Example 185] stands -98.45%; under `O=C(O)COc1cccc(-c2c3ccccc3c(Br)c3sc4ccccc4c23)c1` [Example 90, [3-(6-Bromo-benzo[b]naphtho[2,3-d]thiophen-11-yl)-phenoxyl]-acetic acid], -79.04%; under `COc1c(C#N)cc(-c2c3ccccc3cc3sc4ccccc4c23)cc1C#N` [Example 30, 5-Benzo[b]naphtho[2,3-d]thiophen-11-yl-2-methoxy-isophthalonitrile], 1.00%. Under `COc1ccc(-c2c3ccccc3cc3sc4ccccc4c23)cc1` [Example 23, 11-(4-Methoxy-phenyl)-benzo[b]naphtho[2,3-d]thiophene] stands -8.92%; under `O=C(O)COc1c(Br)cc(-c2c3c(c(Br)c4ccccc24)S(=O)(=O)c2ccccc2-3)cc1Br` [Example 186], -74.87%; under `Cc1cc(-c2c3ccccc3c(C)c3sc4ccccc4c23)cc(C)c1O` [Example 25, 2,6-Dimethyl-4-(6-methyl-benzo[b]naphtho[2,3-d]thiophen-11-yl)-phenol], -38.31%. Consider `BrC[C@@H](Cc1ccccc1)Oc1c(Br)cc(-c2c3ccccc3c(Br)c3sc4ccccc4c23)cc1Br` [Example 174, (R)-6-Bromo-11-[3,5-dibromo-4-(1-bromomethyl-2-phenyl-ethoxy)-phenyl]-benzo[b]naphtho[2,3-d]thiophene], for which the “% Change from Control” value was determined as 0.39%. Under `Oc1ccc(-c2c3ccccc3cc3sc4ccccc4c23)cc1I` [Example 27, 4-(Benzo[b]naphtho[2,3-d]thiophen-11-yl)-2-iodo-phenol] stands -35.78%; under `O=C(O)COc1ccc2c(c1)sc1cc3ccccc3c(-c3ccc(O[C@H](CCN4C(=O)c5ccccc5C4=O)C(=O)O)cc3)c12` [Example 149], -59.82%; under `COc1c(C)cc(-c2c3ccccc3c(C)c3sc4ccccc4c23)cc1C` [Example 24, 11-(4-Methoxy-3,5-dimethyl-phenyl)-6-methyl-benzo[b]naphtho[2,3-d]thiophene], 3.16%. Take `O=C(O)COc1ccc(-c2c3ccccc3cc3sc4cc(OCC(=O)O)ccc4c23)cc1` [Example 74, [11-(4-Carboxymethoxy-phenyl)-benzo[b]naphtho[2,3-d]thiophen-3-yloxy]-acetic acid]: the “% Change from Control” value is recorded as -21.61%. The same measure for `O=C(O)COc1ccc2c(c1)sc1cc3ccccc3c(-c3ccc(O[C@H](Cc4ccccc4)C(=O)O)cc3)c12` [Example 119]: -75.29%; for `CC(=O)Oc1ccc(-c2c3ccccc3cc3sc4ccccc4c23)cc1` [Example 34, 4-(Benzo[b]naphtho[2,3-d]thiophen-11-yl-phenol)acetate ester]: -3.40%.
